Measured values published in patent publication US20070292876A1, “METHODS FOR IDENTIFICATION OF COMPOUNDS THAT MIMIC THE SENESCENCE-INDUCING ACTIVITY OF RETINOIC ACID RECEPTOR LIGANDS” (Ordway Research Institute, Inc., priority 2006, published 2007).

Key:
Type in all cases: cell-based, human
[1] = tested on: MCF-7 cells; experiment: Effect on MCF-7 cell growth (cell number after 7 days exposure); conditions: LGD1550 100 nM, LG100815 10 μM, LGD1268 100 nM, LG101208 10 μM
Experimental: The bars represent cell number after 7 days of culture with the addition of DMSO (control), 100 nM RA, 100 nM RAR agonist LGD1550, 100 nM RXR agonist LGD1268, 10 μM RAR antagonist LG100815, and 10 μM RXR antagonist LG101208. Experiments were done in triplicate, and the results are expressed relative to the average of the control.
(§1) MCF-7 cells were plated at 5×10^5 per P100, and exposed on the next day to DMSO carrier, RA (100 nM), pan-RAR-specific ligands, LGD1550 (100 nM) and LG100815 (10 μM), pan-RXR specific agonist LGD1268, pan-RXR-specific antagonist LG101208, or drug-free DMSO carrier (control). The latter four compounds were provided by Ligand Pharmaceuticals, Inc. The effects of RAR ligands on the growth of MCF-7 cells were determined, as measured by the cell number after 7 days exposure to the compounds (FIG. 1) and on the fraction of cells expressing the senescence-associated β-galactosidase activity (SA-β-gal), a marker of senescence, after 7-day treatment with the compounds (FIG. 2).

[2] = tested on: MCF-7 cells; experiment: Senescence-associated β-galactosidase (SA-β-gal) positive fraction of MCF-7 cells; conditions: 7-day treatment; same concentrations as for cell growth
Experimental: The bars represent percentages of SA-P-gal+cells after 8 days of treatment with the indicated compounds (in triplicate). The compounds were used at the same concentrations as in FIG. 1.
as §1

[3] = tested on: MCF-7 cells; experiment: Affymetrix U133 Plus 2.0 microarray gene expression profiling: genes (oncogenes) inhibited by RAR ligands; conditions: 24, 48 or 72 hr treatment
From the text: (§2) FIG. 3 depicts microarray analysis of changes in gene expression in MCF-7 cells treated with RAR ligands LGD1550 or LG100815, plotted using GeneSpring software. The X axis represents different time points of treatment with RAR ligands (0 point correspond to cells cultured for 3 days with DMSO carrier). […] The groups of genes shown in panels (a) and (b) represent gene ontology (GO) categories, with the exclusion of genes showing raw signal intensity <10 in MCF-7 cells. The groups of genes shown in panels (c) and (d) represent the oncogenes and tumor suppressors listed in Table 1 and Table 2, respectively.
(§3) For the analysis of gene expression, cells treated with the carrier or with RAR ligands LGD1550 or LG100815 were collected after 24, 48 or 72 hr treatment. Total cellular RNA was isolated using Qiagen's RNeasy kit. For gene expression profiling, RNA samples were provided to the Microarray Core Facility at the Genomics Institute of the NYSDOH Wadsworth Center, which carried out biotinylated target preparation (using 2 μg RNA per assay) and hybridization with Affymetrix U133 Plus 2.0 microarrays. Data analysis was carried out using GeneSpring software (Agilent). Gene function analysis was carried out using Pathway Assist (Ariadne Genomics) and PubMed.
Gene Ontology groupings of genes with related biological functions (as provided in the GeneSpring software package) were surveyed for concerted response to RAR ligands. […] Strong downregulation of such genes has been associated with cell cycle arrest induced by chemotherapeutic drugs (Chang et al., 2002). In contrast, inhibition of these genes by RAR ligands was moderate (on average about 2-fold), with almost no genes showing 5-fold or stronger inhibition. On the other hand, we noticed that many of the genes that show the greatest fold inhibition by RAR ligands are known or putative oncogenes. Genes are defined herein as putative oncogenes or tumor suppressors if such genes have been reported in the literature to play a functional role in tumor cell growth, survival, tumorigenesis or metastasis, as determined by targeted inhibition, gene overexpression or protein addition studies.

[4] = tested on: MCF-7 cells; experiment: Affymetrix U133 Plus 2.0 microarray gene expression profiling: tumor suppressors induced by RAR ligands; conditions: 24, 48 or 72 hr treatment
From the text: as §2, §3
As previously described (Dokmanovic et al., 2002), retinoid treatment of MCF-7 cells induces genes that encode growth-inhibitory proteins, both intracellular (EPLIN and UBD) and secreted (IGFBP3 and TGFBI). Through the survey of the present microarray data, additional retinoid-inducible growth-inhibitory genes, induced both by LGD1550 and LG100815, have been identified. These genes, listed in Table 2, provide advantageous reporters for identifying compounds that mimic the senescence-inducing effects of retinoids. The products of these genes include both secreted factors and cell-associated proteins.

`CC(/C=C/C=C(\C)c1cc(C(C)(C)C)cc(C(C)(C)C)c1)=C\C(=O)O` [LGD1550] was tested, and the “MCF-7 cell growth (cell number)” value [1] was “inhibited the cell growth”, the “fraction of cells expressing SA-β-gal (senescent phenotype)” value [2] was “induced SA-β-gal to an extent similar to that of RA” and the “Max fold inhibition of G6PD” value ([3]; probe 202275_at) was 2.2 fold. The “Max fold inhibition of CCNA2” value ([3]; probe 203418_at) was 3.3 fold, the “Max fold inhibition of PTTG1” value ([3]; probe 203554_x_at) was 2.7 fold and the “Max fold inhibition of PBX3” value ([3]; probe 204082_at) was 3.4 fold. For the same compound, the “Max fold inhibition of FGFR3” value ([3]; probe 204379_s_at) was 5.0 fold, the “Max fold inhibition of TFF3” value ([3]; probe 204623_at, secreted) was 4.0 fold and the “Max fold inhibition of IRS1” value ([3]; probe 204686_at) was 2.6 fold. The “Max fold inhibition of MYB” value ([3]; probe 204798_at) was 9.9 fold, the “Max fold inhibition of C4.4A” value ([3]; probe 204952_at) was 8.1 fold and the “Max fold inhibition of ENTPD5” value ([3]; probe 205757_at) was 3.4 fold. The “Max fold inhibition of GREB1” value ([3]; probe 205862_at) was 4.8 fold, the “Max fold inhibition of HMMR” value ([3]; probe 207165_at) was 2.9 fold and the “Max fold inhibition of CCND1” value ([3]; probe 208711_s_at) was 2.1 fold. The “Max fold inhibition of BMP7” value ([3]; probe 209591_s_at, secreted) was 1.8 fold, the “Max fold inhibition of CXCL12” value ([3]; probe 209687_at, secreted) was 5.7 fold and the “Max fold inhibition of MSX2” value ([3]; probe 210319_x_at) was 4.0 fold. The “Max fold inhibition of RET” value ([3]; probe 211421_s_at) was 8.5 fold, the “Max fold inhibition of PIK3R1” value ([3]; probe 212240_s_at) was 2.0 fold and the “Max fold inhibition of MYBL1” value ([3]; probe 213906_at) was 2.6 fold. For the same compound, the “Max fold inhibition of MAFB” value ([3]; probe 218559_s_at) was 7.5 fold, the “Max fold inhibition of VAV3” value ([3]; probe 218807_at) was 14.5 fold and the “Max fold inhibition of PDLIM2” value ([3]; probe 219165_at) was 4.0 fold. For the same compound, the “Max fold inhibition of ECT2” value ([3]; probe 219787_s_at) was 2.8 fold, the “Max fold inhibition of SPDEF” value ([3]; probe 220192_x_at) was 14.2 fold and the “Max fold inhibition of AMIGO2” value ([3]; probe 222108_at) was 11.7 fold. The “Max fold inhibition of MALAT1” value ([3]; probe 224559_at) was 2.5 fold, the “Max fold induction of NBL1” value ([4]; probe 37005_at) was 4.0 fold and the “Max fold induction of GSN” value ([4]; probe 200696_s_at) was 1.7 fold. For the same compound, the “Max fold induction of BTG1” value ([4]; probe 200921_s_at) was 2.5 fold, the “Max fold induction of PRSS11” value ([4]; probe 201185_at, secreted) was 1.9 fold and the “Max fold induction of BTG2” value ([4]; probe 201236_s_at) was 8.3 fold. The “Max fold induction of TGFBI” value ([4]; probe 201506_at, secreted) was 53.0 fold, the “Max fold induction of MARCKS” value ([4]; probe 201669_s_at) was 9.3 fold and the “Max fold induction of PRSS8” value ([4]; probe 202525_at, secreted) was 2.4 fold. For the same compound, the “Max fold induction of IRF1” value ([4]; probe 202531_at) was 5.3 fold, the “Max fold induction of FBLN5” value ([4]; probe 203088_at, secreted) was 10.1 fold and the “Max fold induction of IGFBP6” value ([4]; probe 203851_at, secreted) was 2.6 fold. The “Max fold induction of GADD45G” value ([4]; probe 204121_at) was 3.8 fold, the “Max fold induction of UBD” value ([4]; probe 205890_s_at) was 35.9 fold and the “Max fold induction of BATF” value ([4]; probe 205965_at) was 2.7 fold. For the same compound, the “Max fold induction of CEACAM1” value ([4]; probe 206576_s_at) was 16.2 fold, the “Max fold induction of PPARG” value ([4]; probe 208510_s_at) was 15.9 fold and the “Max fold induction of KLF6” value ([4]; probe 208961_s_at) was 2.2 fold. The “Max fold induction of DDIT3” value ([4]; probe 209383_at) was 2.5 fold, the “Max fold induction of NKX3-1” value ([4]; probe 209706_at) was 7.5 fold and the “Max fold induction of IGFBP3” value ([4]; probe 210095_s_at, secreted) was 32.2 fold. For the same compound, the “Max fold induction of SULF1” value ([4]; probe 212354_at, secreted) was 2.9 fold, the “Max fold induction of PDCD4” value ([4]; probe 212593_s_at) was 1.7 fold and the “Max fold induction of EI24” value ([4]; probe 216396_s_at) was 2.2 fold. For the same compound, the “Max fold induction of EPLIN” value ([4]; probe 217892_s_at) was 18.8 fold, the “Max fold induction of PHLDA1” value ([4]; probe 217996_at) was 3.7 fold and the “Max fold induction of GDF15” value ([4]; probe 221577_x_at, secreted) was 7.2 fold. For the same compound, the “Max fold induction of FOXO3A” value ([4]; probe 224891_at) was 2.3 fold, the “Max fold induction of HIPK2” value ([4]; probe 225368_at) was 3.7 fold and the “Max fold induction of TGFB2” value ([4]; probe 228121_at, secreted) was 2.0 fold. The “Max fold induction of CDKN2B” value ([4]; probe 236313_at) was 3.2 fold and the “Max fold induction of VHL” value ([4]; probe 1559227_s_at) was 2.0 fold.
